In patent publication US7060277B2 (priority 1996, dated 2006):
“Also recorded” adds a separate entry of the source. Square brackets hold non-standard residues; d marks the D form. Ends that are not written are not given here. Peptide text beside a SMILES is read from it.

Assays:
[1] = mouse, in vivo
[2] = pig
[3] = system: SEB-mediated induction of IL-2, IFN-γ and/or TNF-β gene expression in PBMC; assay type: cell-based, human
[4] = system: expression of IL-2 and IFN-γ genes in PBMC; assay type: cell-based, human
[5] = system: induction of IL-2 / IFN-γ mRNA by TSST-1 in PBMC; assay type: cell-based, human
SEB-induced lethal shock = system: SEB-induced lethal shock; parameters: species or system BALB/c mice; conditions: mouse, in vivo

Compound: CC(C)C[C@H](NC(=O)[C@H](CCC(=O)O)NC(=O)[C@H](CCC(N)=O)NC(=O)[C@@H](NC(=O)[C@@H](NC(=O)[C@H](C)NC(=O)[C@H](CCCCN)NC(=O)[C@H](CCCCN)NC(=O)[C@H](CCCCN)NC(=O)[C@H](CC(N)=O)NC(=O)[C@H](Cc1ccc(O)cc1)NC(=O)[C@@H](C)N)[C@@H](C)O)C(C)C)C(=O)N[C@@H](CC(=O)O)C(=O)N[C@H](C)C(=O)O [p12A, daY N K K K A T V Q E L Dda] (H-[dA]YNKKKATVQELD[dA]-OH)
- side effects in peptide-treated, SEB-challenged mice [1]: No side effects
- viability and side effects of mice exposed to peptide alone [1]: stayed fully viable and showed no detectable side effects

Compound: CC(C)C[C@H](NC(=O)[C@H](CCC(=O)O)NC(=O)[C@H](CCC(N)=O)NC(=O)[C@@H](NC(=O)[C@@H](NC(=O)[C@H](C)NC(=O)[C@H](CCCCN)NC(=O)[C@H](CCCCN)NC(=O)[C@H](CCCCN)NC(=O)[C@H](CC(N)=O)NC(=O)[C@H](Cc1ccc(O)cc1)NC(=O)[C@H](CCC(N)=O)NC(=O)[C@@H](NC(=O)[C@@H](C)N)C(C)C)[C@@H](C)O)C(C)C)C(=O)N[C@@H](CC(=O)O)C(=O)N[C@H](C)C(=O)O [p14A, daV Q Y N K K K A T V Q E L Dda] (H-[dA]VQYNKKKATVQELD[dA]-OH)
- viability and side effects of mice exposed to peptide alone [1]: stayed fully viable and showed no detectable side effects
- toxin agonist activity in vivo [2]: without any detectable toxin agonist activity in vivo
- symptoms of incapacitation in pigs that received peptide alone ([2]; in vivo): failed to develop any symptoms of incapacitation

Compound: C Y N K K K A T V Q E L D C [Cys-p12(150–161)]
- SEB antagonist activity, IL-2 and IFN-γ mRNA at 8 hrs [3]: significant SEB antagonist activity, even upon tenfold dilution
- SEB antagonist activity, overall comparison [3]: more powerful as antagonist than p12(150–161)

Compound: IDQFLYFDLIYSIKDTKLGNY (IDQFLYFDLIYSIKDTKLGNY) [pSEB(41–61)]
- block of induction of IL-2 and IFN-γ mRNA by SEB [3]: failed to block induction of IL-2 and IFN-γ mRNA by SEB
- SEB agonist activity, induction of mRNA for IL-2 or IFN-γ by RNase protection [4]: failed to show SEB agonist activity

Compound: K K K A T V Q E L D (KKKATVQELD) [p10(152–161)]
- antagonist activity, SEB-mediated IL-2 mRNA induction [3]: pronounced antagonist activity; also recorded: lower, yet still significant, antagonist activity
- inhibition of IL-2 gene induction by SEB [3]: up to 8 fold

Compound: K K K V T A Q E L D (KKKVTAQELD) [pSEB(152–161)]
- antagonist activity, SEB-mediated IL-2 mRNA induction [3]: pronounced antagonist activity

Compound: TNKKKVTAQELD [pSEB(150–161), T N K K K V T A Q E L D]
- viability of PBMC cultured with peptide (PBMC): undiminished viability

Compound: YNKKKATVQELDYNKKKATVQELI (YNKKKATVQELDYNKKKATVQELD; listed as Staphylococcus aureus) [Dimer]
- SEB antagonist activity, overall comparison [3]: more powerful as antagonist than p12(150–161)
- inhibition of IFN-γ mRNA induction by SEB, peptide diluted 100-fold [3]: detectable inhibition
- inhibition of SEB-induced IL-2 and IFN-γ gene expression [3]: effective as antagonist
- inhibition of induction of IL-2 and IFN-γ mRNA by SEB [3]: strongly inhibitory
- inhibition of induction of IL-2 mRNA by SEB [3]: inhibited
- inhibition of induction of IL-2 mRNA by TSST-1 [5]: inhibited

Compound: YNKKKATVQELDYNKKKATVQELIYNKKKATVQELD (YNKKKATVQELDYNKKKATVQELIYNKKKATVQELD) [Trimer]
- inhibition of induction of IL-2 and IFN-γ mRNA by SEB [3]: strongly inhibitory

Compound: YNKKKATVQELD [p12(150–161), Y N K K K A T V Q E L D]
- viability of PBMC cultured with peptide (PBMC): undiminished viability

Compound: lpV Q Y N K K K A T V Q E L D [p14A-LP]
- immunized mice that survived lethal SEB challenge (SEB-induced lethal shock): Ten out of 11
- immunized survivors that survived rechallenge with a double dose of SEB (SEB-induced lethal shock): 7 out of the 10
